Results published in a melting point compilation (Tetko et al.; mined from patent text by program, amines drawn as free bases though some values may be those of a salt).

Compound	melting point [°C]
O=C(O)Cn1cc(Cc2nc3c(F)c(F)cc(F)c3s2)c2cccc(Br)c21	228 to 230
CC(C)S(=O)(=O)c1snc(OC[Si](C)(C)C)c1C#N	98 to 99
O=C(O)Cc1ccc(NC(=O)C(COc2ccc(Cl)cc2)NS(=O)(=O)c2ccc(Br)cc2)cc1 (racemic)	218 to 220
CCCCCCCCC#CCC#CCC#CCS(=O)(=O)CC(=O)O	132
CCCn1c(=O)c2[nH]c(/C=C/c3cccc(Cl)c3)nc2n(CCC)c1=O	259
CC(=O)NCCCn1cc(-c2cc3nccnc3[nH]2)c2ccccc21	260
CC(C)(CNC(=O)Cc1ccccc1)NCC(O)c1cc(Cl)c(N)c(Cl)c1 (configuration not stated)	96 to 98
CC(C#N)(c1ccc(Cl)cc1)c1ccc(-n2ncc(=O)[nH]c2=O)cc1Cl (configuration not stated)	235
CC(C)n1cc(-c2nc(C(N)=O)c(N)nc2-c2cccc(F)c2)ccc1=O	259
C=CS(=O)(=O)NC(=O)Nc1nc(C)cc(C)n1	131 to 133
CN1c2ccccc2N=C(N2CCN(CCO)CC2)c2cscc21	192 to 193
CC1(C)C=C(c2ccccn2)c2cc(C#N)ccc2O1	106 to 108
CCOC(=O)[C@H](COCc1ccccc1)NC(=O)C(C)(C)NC(=O)[C@@H](SC(C)=O)C(C)C	55 to 57
Cn1c([N+](=O)[O-])cnc1-c1cc(CCC(=O)O)on1	114
CCOC(=O)COc1cc(OC)c2c(c1[N+](=O)[O-])OC1(CCCCC1)CC2=O	142 to 143
CCCCCCCCCCCCc1ccccc1CC(O)(SCCC(=O)O)C(N)=O (configuration not stated)	97.5 to 102
Cc1cc(NC2=NN(c3ccccc3)CC2)cc(C)c1O	154 to 158
COc1ccc(CC(=O)c2cccs2)cc1	77 to 78.4
COc1cc(C=Cc2nc3c(s2)NCCCC3)ccc1O	175 to 178
O=C(O)C=C(C(=O)c1ccc(Cl)c(Cl)c1)c1ccccc1	101 to 103
CC(=O)Nc1nc(-c2ccc(SCOC(C)=O)cc2)cs1	144 to 145
Cc1ccc2nc(-c3cccc(C(=O)O)c3)oc2c1	239 to 241
COc1cc(COc2nn(-c3ccccc3)cc2/C=C/S(C)(=O)=O)ccc1OCc1nc(-c2ccco2)oc1C	152 to 153
CCS(=O)(=O)C1=C(C(=O)c2ccc(S(C)(=O)=O)cc2Cl)C(=O)CCC1	157 to 161
NC(=O)CC12CC3CC(CC(C3)C1)C2	174
O=C(O)C(Br)C(O)c1cccc([N+](=O)[O-])c1 (configuration not stated)	124 to 125

Compound	melting point [°C]
COc1ccc2[nH]c(C(=O)Nc3ccc(CCCN(C)Cc4ccc(OC)c(OC)c4)cc3)cc2c1	80
Cc1ccc(CN(C(=O)C2CC2)c2nc(C)no2)cc1	49.5 to 50.5
CCOC(=O)c1c(C)n(Cc2ccc3ccccc3n2)c2ccc(OCc3ccc4ccccc4n3)cc12	162 to 163
COc1cc2c(=O)n(CCCn3ccnc3)c3c4ccccc4[nH]c(=O)c3c2cc1OC	288 to 290
O=C1COc2cc(F)c([N+](=O)[O-])cc2N1	200 to 202
CC(c1ccc(C(F)(F)F)nc1)S(C)=NC#N (configuration not stated)	78 to 80
C#Cc1ccc(C(CC2CCCC2)C(=O)O)cc1 (configuration not stated)	80 to 83
CC(C)c1ccc(-c2c(Cl)ncnc2Cl)cc1	69 to 70
CCSc1cn(C)cc(-c2ccccc2)c1=O	94 to 95
O=C(C[C@H](NC(=O)OCc1ccccc1)C(=O)Nc1cc(Cc2n[nH]c(=O)c3ccccc23)ccc1F)OCc1ccccc1	76 to 80
Nc1c(Cl)cc(C(O)CNCCCCCCOCCc2ccccn2)cc1Cl (configuration not stated)	94 to 96
OCc1cc2c(F)cccc2nc1Cl	176
Cc1cc(-n2cncn2)c2cccc(OCc3c(Cl)ccc(S(=O)(=O)N4CCC[C@H]4C(=O)O)c3Cl)c2n1	146
CC[C@@]12C[C@@](C)(O)[C@](O)(c3ccccc3)C[C@H]1CCc1cc(OCC(C)(C)O)ccc12	190 to 193
CC1(C)CCC(Cc2ccc(Cl)cc2)C1(O)COS(C)(=O)=O (configuration not stated)	113 to 114
Brc1ccc(SC23CC4CC(CC(C4)C2)C3)cc1	121 to 122
CCCc1nc2c(N)nc(C)c(C)c2n1CCCC(C)=NOC	144 to 146
CCOC(=O)C(=O)NNc1ccc(NC(=S)NC)cc1	168 to 169
O=C(O)C1Cc2ccc(Cl)cc2NC1=O (configuration not stated)	158 to 160
CCOc1ccc(C(=O)CCC(=O)Nc2cn(Cc3ccccc3)nc2-c2ccccc2)cc1	138 to 141
CC(=NNc1ccc(C2=NNC(=O)CC2C)cc1)c1ccncc1 (configuration not stated)	246 to 248
CCOC(=O)Nc1cc(OC(C)C)c(Cl)cc1F	89 to 91
COc1ccc2c(c1)C(=O)N(c1ccc3c(c1)N(C)CCN3C)C2	137 to 142
CNC(=O)c1ccc(Nc2nc(OCC3CCCCC3)c3nc[nH]c3n2)cc1	139 to 142
CC(Oc1ncn(-c2cccc(Br)c2)n1)C(=O)N1CCCC1 (configuration not stated)	111 to 113
O=c1c(C=NO)c(Cl)nc2n1CCS2	148 to 150

Compound	melting point [°C]
CC1CN(c2ccc(N)cc2)CC(C)N1 (configuration not stated)	124 to 125
Cc1ccc(NC(=O)c2ccc(Br)cc2)cc1N1CCN(C)CC1	208 to 209
Cc1nc2cccc3n(CCCNS(C)(=O)=O)c(=O)c1n23	184 to 185
CC(=O)Nc1ccccc1C(=O)C=Cc1ccncc1	130
CC(=O)OC1CCC2(C)C(CCC3C2CCC2(C)C(N)C(O)CC32)C1 (configuration not stated)	192 to 193
O=C(NCCC(F)=C(F)F)N(c1ccccc1)c1ccccc1	116 to 117
CCNc1cccc(-c2ccnc3c(C(=O)c4cccs4)cnn23)c1	154 to 155
CC1(C)CC(NC(=O)c2cc([N+](=O)[O-])cc([N+](=O)[O-])c2)CC(C)(C)N1	220 to 222
CCN(CCc1ccc(NS(C)(=O)=O)cc1)CCc1ccc(NS(C)(=O)=O)cc1	< 60
Cc1ccc(S(=O)(=O)OCC2OC(n3ccc(=O)[nH]c3=O)CC2O)cc1 (configuration not stated)	162
O=c1c2ccccc2oc2cc(OCCO)c(Cl)cc12	153 to 156
COc1cc(OCC(CO)CO)c(C=CC(=O)c2ccc(S(=O)(=O)Nc3cc(C)on3)cc2)cc1-c1cccs1	165 to 166
Cc1oc(-c2ccccc2)nc1COc1ccc(COc2ncccc2CC(=O)O)cc1	144 to 145
COCOc1ccccc1-c1cc(-c2cccc(C(=O)OC)c2)c(C#N)c(N)n1	129 to 130
CC=CC(=O)Nc1n[nH]c2ccc(C)cc12	218
CCCc1nc2cnc3cc(Br)ccc3c2n1CC1CCN(C(=O)OC(C)(C)C)CC1	215 to 216
CC(=O)N1C(=O)OC[C@@H]1Cc1ccccc1	106
Cc1nc2nc(SCc3ccccc3)nn2c(O)c1Cl	258 to 260
O=C(Nc1cccc(C(=O)O)c1)Oc1ccccc1	131 to 133
CCOC(=O)N/N=C/c1ccc(OC)c(OC2CCCC2)c1	146 to 147
CCC(=O)N1CCC(NC(=O)Nc2ccc([N+](=O)[O-])cc2)CC1	240 to 241
COC(=O)[C@H]1CC[C@H](c2[nH]nc3c2C(=O)c2c(NC(=O)NN4CCOCC4)cccc2-3)CC1	259 to 261
CNC(=O)c1ccccc1Nc1nc(Nc2cccc3c2N(C)CCN(C)C3=O)ncc1Cl	243 to 244
O=c1[nH]c2ccccc2c2nc(-c3ccco3)nn12	338 to 343
O=C(O)CCCCN1CCC(Cc2ccccc2)CC1	148 to 151
OC(Cn1ccnc1)(Cn1cncn1)c1ccc(Cl)cc1Cl (configuration not stated)	169 to 170

Compound	melting point [°C]
CCCN(CCC)c1c(CC)nn2c(-c3ccc(N(C)C)cc3C(F)(F)F)cccc12	69.1 to 79.8
Cc1oc(-c2ccccc2)nc1COc1cccc(COc2ccccc2CC(=O)O)c1	117 to 118
Cc1[nH]c(C)c(-c2ccc(Oc3ccc(OC(F)(F)F)cc3)cc2)c(=O)c1Br	284 to 286
Cc1cc(N2CCN(CCc3ccccc3)C2=O)sc1C(=O)NCc1cccnc1	95 to 97
N#Cc1ccc([C@H]2[C@@H]3C(=O)N(Cc4ccc5c(c4)OCO5)C(=O)[C@@H]3[C@@H]3CSCN32)cc1 (racemic)	142 to 143
N#CCc1cccc(-c2ccc3c(c2)C2(CCCCC2)C(=O)N3)c1	190 to 193
O=c1ncc(Cl)cn1C(SCc1ccccc1)c1ccccc1 (configuration not stated)	118
CCCC[C@H](NC(=O)[C@H](CCC(=O)OC(C)(C)C)NC(=O)OCc1ccccc1)C(=O)CSCc1ccco1	78 to 79
O=S1(=O)CCc2nn(-c3ccc(Cl)cc3F)c(Cl)c2C1	141 to 143
COc1ccc(S(N)(=O)=O)cc1C(O)CCl (configuration not stated)	112
CC(C)SC(Cc1ccc(OCCN(C)c2nc3ccccc3o2)cc1)C(=O)O (configuration not stated)	144 to 145
CCOC1=Nc2nc(C(C)(C)C)[nH]c2C2=N[C@H](Cc3ccccc3)CN12	220 to 222
C=C(C)C=CCC(C)C1CCC2(C)C1(C)CCC1C3(C)CCC(OC(C)=O)CC3CCC12C (configuration not stated)	120 to 125
Cn1c(COc2ccc(CC3SC(=O)NC3=O)cc2)nc2ccc(-c3ccccc3)nc21 (configuration not stated)	211 to 213
OCc1ccccc1-c1ccc(CBr)cc1	101 to 106
NC(=O)c1ncn(C2OC(CO)C(O)C2O)c1C(N)=O (configuration not stated)	224 to 226
Nc1ccc2sc3ccc(F)cc3c2c1	131 to 132
C=CCOC(=O)C1N2C(=O)C(NC(=O)CC(=O)OCC)C2S(=O)(=O)C1(C)C (configuration not stated)	114 to 115
COc1ccc2[nH]c([S+]([O-])Cc3ncc(C)c(OC)c3C)nc2n1 (configuration not stated)	224 to 226
CCOC(=O)CNC(=O)CCCCCNC(=O)c1ccc(S(C)(=O)=O)cc1	124 to 126
c1ccc(Nc2nc(-c3ccco3)nc3ccccc23)cc1	183 to 184
NP(=O)(O)CCc1ccccc1	226
CCCCCCC(C)(Sc1cc(C(C)(C)C)c(O)c(C(C)(C)C)c1)Sc1cc(C(C)(C)C)c(O)c(C(C)(C)C)c1	130 to 133
OC(CC1CCN(CC2CC2)CC1)(c1ccc(F)cc1)c1ccc(F)cc1	119 to 121
